Like-named read-outs stand apart in the source and are kept apart here.
What was measured:
human cyclin D1-CDK4 = human cyclin D1-CDK4 (Homo sapiens, UniProt P11802); assay: CDK4 HTRF kinase assay (Ki measurement); type: biochemical; settings: ATP at 3x Km
Procedure: To determine inhibition of Cdk4, Cdk2 and Cdk1 activity, kinase assays were conducted using FlashPlateTM assays (NENTM-Life Science Products). […] W. Harper at the Baylor College of Medicine, Houston, Tex. Proteins were co-expressed in High FiveTM insect cells and the complex was purified on glutathione Sepharose resin (Pharmacia, Piscataway, N.J.) as previously described (Harper, J. W. et al. Cell 1993, 75, 805-816). A 6×-Histidine tagged […]) was used as the substrate for the cycD1-CDK4, cycB-CDK1 and the cycE-CDK2 assays (the expression plasmid was provided by Dr. Veronica Sullivan, Department of Molecular Virology, Roche Research Centre, Welwyn Garden City, United Kingdom). The Rb protein is a natural substrate for phosphorylation by CDK4, CDK2 and CDK1 (see Herwig and Strauss Eur. J. Biochem. Vol. 246 (1997) pp. 581-601 and the references cited therein). Alternatively, inhibition activity may be measured using Ki. Using the protein constructs described above in Example 19A above, CDK1, CDK2, and CDK4 HTRF assays were set up. These were done in 96-well format and read in 384-well plate format. The assays were run at 3× their respective Kms for ATP. In the CDK4 assay, test compounds were diluted to 3× their final concentrations in 25 mM Hepes, pH 7.0, 6.25 mM MgCl2, 1.5 mM DTT, 135 μM ATP. The DMSO concentration was no greater than 4.76%. Twenty microliters were added to the wells of a 96-well plate. The kinase reaction was initiated by the addition of 40 μl/well of a solution containing 0.185 μM Rb and 2.25 μg/ml CDK4 in 25 mM Hepes, pH 7.0, 6.25 mM MgCl2, 0.003% Tween-20, 0.3 mg/ml BSA, 1.5 mM DTT. Blank wells without CDK4 were included. The plates were incubated at 37° C. for 30 minutes with shaking. The kinase reaction was terminated by the addition of 15 μl/well of 1.6 uM anti-phospho-Rb ([…]) antibody (Cell Signaling Inc.) in 25 mM Hepes, pH 7.0, 24 mM EDTA, 0.2 mg/ml BSA. After 30 minutes at 37° C., 15 μl/well of 3 nM Lance-Eu-W1024 labeled anti-rabbit IgG and 60 nM Allophycocyanin conjugated anti-His6 (PerkinElmer Life Sciences) in 25 mM Hepes, pH 7.0, 0.5 mg/ml BSA were added. Following a one hour incubation at 37 deg C., 35 μl of each well, in duplicate, were transferred to 384-well black plates. The plates were read using either ViewLux or Victor V readers (PerkinElmer Life Sciences) using an excitation wavelength of 340 nm and dual emission wavelengths of 615 nm and 665 nm. IC50 values (the concentration of test compounds reducing the assay control fluorescence read-out by 50%) were first calculated from net readings at 665 nm, normalized for europium readings at 615 nm. For ATP competitive inhibitors, the Ki values were calculated according to the following equation: […]

human cyclin E-CDK2 = human cyclin E-CDK2 (Homo sapiens, UniProt P24941); assay: CDK2 HTRF kinase assay (Ki measurement); type: biochemical
Procedure: (§1) To determine inhibition of Cdk4, Cdk2 and Cdk1 activity, kinase assays were conducted using FlashPlate™ assays (NEN™-Life Science Products). FlashPlate assays were performed using recombinant human cyclin B-CDK1, human cyclin E-CDK2 or human cyclin D1-CDK4 complexes. GST-cyclinE (GST-cycE), CDK2, GST-cyclinB (GST-cycB), CDK1, GST-CDK4 and cyclin D1 (cycD1) cDNA clones in baculovirus vectors were provided by Dr. W. Harper at the Baylor College of Medicine, Houston, Tex.
(§2) Alternatively, inhibition activity may be measured using Ki. […] These were done in 96-well format and read in 384-well plate format. The assays were run at 3× their respective Kms for ATP.
(§3) Twenty microliters were added to the wells of a 96-well plate. […] Blank wells without CDK4 were included. The plates were incubated at 37° C. for 30 minutes with shaking. […] After 30 minutes at 37° C., 15 μl/well of 3 nM Lance-Eu-W1024 labeled anti-rabbit IgG and 60 nM Allophycocyanin conjugated anti-His6 (PerkinElmer Life Sciences) in 25 mM Hepes, pH 7.0, 0.5 mg/ml BSA were added. Following a one hour incubation at 37 deg C., 35 μl of each well, in duplicate, were transferred to 384-well black plates. The plates were read using either ViewLux or Victor V readers (PerkinElmer Life Sciences) using an excitation wavelength of 340 nm and dual emission wavelengths of 615 nm and 665 nm.
(§4) The CDK1 and CDK2 assays were similarly run except for small differences in reagent and protein concentrations:
The compound and enzyme buffers for both assays contained 10 mM MgCl2.

[1] = test system: HCT116 colorectal carcinoma cell line; assay: Tetrazolium dye proliferation assay (MTT assay); type: cell-based; settings: Homo sapiens, HCT-116, HCT116 cells
Procedure: Proliferation was evaluated by the tetrazolium dye assay according to the procedure of Denizot and Lang (Denizot, F. and Lang, R. J Immunol Methods 1986, 89, 271-277). The cell line used was HCT116, a colorectal carcinoma cell line obtained from the American Type Cell Culture Collection (ATCC; Rockville, Md.). The cells were grown in McCoy's 5A medium supplemented with 10% FCS and L-glutamine.
Cells were plated at the appropriate seeding density to give logarithmic growth over the course of the assay in a 96-well tissue culture plate. Plates were incubated overnight at 37° C. in a humidified incubator with 5% CO2. The next day, test compounds were serially diluted to four times the final concentration in the appropriate medium containing 1.2% DMSO. One-fourth final volume of each dilution was added in duplicate to the plates containing cells. The same volume of 1.2% DMSO in medium was added to a row of “control wells” such that the final concentration of DMSO in each well was 0.3%. Wells to which no cells were added served as the “blank.” Wells to which no inhibitor was added served as “no inhibitor control.” The plates were) returned to the incubator, and at set time points (determined by their growth curves) plates were analyzed as described below.
3-(4,5-dimethylthiazole-2-yl)-2,5-diphenyl-2H-tetrazolium bromide (thiazolyl blue; MTT; Sigma) was added to each well to yield a final concentration of 1 mg/ml. Plates were returned to the incubator for 2.5-3 hours at 37° C. The MTT-containing medium was removed and the resulting formazan metabolite was solubilized in 100% ethanol with shaking for 15 minutes at room temperature. Absorbance readings were taken in a microtiter plate reader (Dynatech and Molecular Devices plate readers were used interchangeably) at a wavelength of 570 nm with a 650 nm reference. Percent inhibition (% INH) is calculated by subtracting the absorbance of the blank well from all wells, then subtracting the ratio of the average absorbance of each test duplicate (SAVE) by the average of the controls (CAVE) from 1.00. The final number is then multiplied by 100 (% INH=(1.00−SAVE/CAVE)×100). The concentration at which 50% inhibition of cell proliferation is obtained (the IC50) is determined from the linear regression of a plot of the logarithm of the concentration versus percent inhibition.

human cyclin B-CDK1 = human cyclin B-CDK1 (Homo sapiens, UniProt P06493); assay: CDK1 HTRF kinase assay (Ki measurement); type: biochemical; settings: ATP at 3x Km
Chain of human cyclin B-CDK1 (P06493 whole entry): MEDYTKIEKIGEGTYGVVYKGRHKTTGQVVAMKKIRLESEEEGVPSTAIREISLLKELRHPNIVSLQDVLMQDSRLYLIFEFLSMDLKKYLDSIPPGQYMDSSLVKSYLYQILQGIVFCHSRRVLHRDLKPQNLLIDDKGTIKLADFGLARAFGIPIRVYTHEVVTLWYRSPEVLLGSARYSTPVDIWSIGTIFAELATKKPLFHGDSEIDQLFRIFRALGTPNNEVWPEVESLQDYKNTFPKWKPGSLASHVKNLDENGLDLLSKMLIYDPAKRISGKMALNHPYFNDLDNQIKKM
Chain of human cyclin B-CDK1 (P14635 whole entry partner): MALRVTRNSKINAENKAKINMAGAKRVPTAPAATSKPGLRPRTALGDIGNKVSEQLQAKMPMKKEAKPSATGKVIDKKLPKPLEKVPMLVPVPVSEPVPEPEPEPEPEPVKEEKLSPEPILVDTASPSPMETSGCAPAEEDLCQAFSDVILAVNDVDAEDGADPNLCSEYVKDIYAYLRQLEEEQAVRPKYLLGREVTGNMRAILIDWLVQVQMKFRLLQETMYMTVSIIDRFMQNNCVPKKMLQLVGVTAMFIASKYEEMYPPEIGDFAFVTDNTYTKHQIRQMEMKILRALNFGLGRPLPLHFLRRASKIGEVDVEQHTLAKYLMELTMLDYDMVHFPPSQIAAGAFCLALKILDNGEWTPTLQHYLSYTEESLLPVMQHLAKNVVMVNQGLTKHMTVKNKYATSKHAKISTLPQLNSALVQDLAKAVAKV
Procedure: as §1, §2
as §3, with “nm. […] For ATP competitive inhibitors, the Ki values were calculated according to the following equation: Ki=IC50/(1+S/Km) where S refers to the substrate concentration and Km refers to the Michaelis-Menten constant.” for “nm.”
as §4
The compound and enzyme buffers for both assays contained 10 mM MgCl2. […] CDK1 at a reagent concentration of 0.15 ng/ul and CDK2 at a reagent concentration of 0.06 ng/ul were used.

[2] = HTRF assay, ATP at 3x Km, read-out: Ki CDK2

Chain of human cyclin D1-CDK4 (P11802 whole entry): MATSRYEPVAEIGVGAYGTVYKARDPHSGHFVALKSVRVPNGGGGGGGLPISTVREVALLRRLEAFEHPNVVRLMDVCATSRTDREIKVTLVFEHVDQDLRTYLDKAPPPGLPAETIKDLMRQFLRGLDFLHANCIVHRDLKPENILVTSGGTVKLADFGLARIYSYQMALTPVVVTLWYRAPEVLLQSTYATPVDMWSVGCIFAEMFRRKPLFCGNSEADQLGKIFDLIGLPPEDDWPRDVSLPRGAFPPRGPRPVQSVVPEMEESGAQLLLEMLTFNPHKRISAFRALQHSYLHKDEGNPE
Chain of human cyclin D1-CDK4 (P24385 whole entry partner): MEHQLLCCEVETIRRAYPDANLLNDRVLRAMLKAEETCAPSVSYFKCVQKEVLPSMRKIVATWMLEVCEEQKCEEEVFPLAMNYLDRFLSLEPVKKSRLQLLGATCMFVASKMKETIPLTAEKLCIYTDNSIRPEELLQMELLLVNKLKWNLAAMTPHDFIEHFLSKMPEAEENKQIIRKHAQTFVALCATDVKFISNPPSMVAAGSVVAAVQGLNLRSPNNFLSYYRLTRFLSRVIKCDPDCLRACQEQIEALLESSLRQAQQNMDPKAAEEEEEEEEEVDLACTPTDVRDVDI

Compound | Ki (human cyclin D1-CDK4) | Ki (human cyclin E-CDK2) | IC50 [1] | Ki (human cyclin B-CDK1) | Ki (human cyclin E-CDK2; [2])
COc1ccc(F)cc1C(=S)c1cnc(NC2CCN(S(C)(=O)=O)CC2)nc1N [Example 5, [4-Amino-2-(1-methanesulfonyl-piperidin-4-ylamino)-pyrimidin-5-yl]-(5-fluoro-2-methoxy-phenyl)-methanethione] | 1.3 nM | 1.3 nM | 81 nM | < 10 nM | 
CS(=O)(=O)N1CCC(Nc2ncc(C(=S)c3c(F)c(F)cc4ccoc34)c(N)n2)CC1 [Example 6, [4-Amino-2-(1-methanesulfonyl-piperidin-4-ylamino)-pyrimidin-5-yl]-(5,6-difluoro-benzofuran-7-yl)-methanethione] | 0.26 nM |  | 13 nM | 3 nM | 0.1 nM
CS(=O)(=O)N1CCC(Nc2ncc(C(=S)c3c(Cl)ccc(F)c3F)c(N)n2)CC1 [Example 13, [4-Amino-2-(1-methanesulfonyl-piperidin-4-ylamino)-pyrimidin-5-yl]-(6-chloro-2,3-difluoro-phenyl)-methanethione] | 3 nM |  | 176 nM | 3 nM | 1 nM
COc1ccc(F)c(F)c1C(=S)c1cnc(Nc2ccc(S(N)(=O)=O)cc2)nc1N [Example 14, 4-[4-Amino-5-(2,3-difluoro-6-methoxy-thiobenzoyl)-pyrimidin-2-ylamino]-benzenesulfonamide] | 3 nM |  | 32 nM | 3 nM | 1 nM
CS(=O)(=O)N1CCC(Nc2ncc(C(=S)c3c(F)cccc3F)c(N)n2)CC1 [Example 15, [4-Amino-2-(1-methanesulfonyl-piperidin-4-ylamino)-pyrimidin-5-yl]-(2,6-difluoro-phenyl)-methanethione] | 1 nM | 1 nM | 171 nM | 3 nM | 

From patent US7705009B2, “4-aminopyrimidine-5-thione derivatives” (Hoffman-La Roche Inc., priority 2005, dated 2010)
